# Results from US8329413B2, “Glycoproteomic probes for fluorescent imaging of fucosylated glycans in vivo” (Academia Sinica, priority 2007, dated 2012).
# Counter-ions that a name gives are not always drawn.
# Assays:
# [1] = cited from earlier work
# [2] = tested on: human alpha1-acid glycoprotein (AGP); assay: Fluorescent labeling of AGP fucosylated by FucT V, SDS/PAGE visualized by UV light; assay type: biochemical; details: AGP fucosylated with FucT V and GDP-fucose analog 8, 9 or 10, then labeled with 1a or 1b
# Description: Briefly, fucose analogs 4 and 5 are converted to the corresponding 1-bromides, which then are substituted directly by a phosphate group. […] Therefore, TiBr4 is used instead, as described by Srivastava. The fucose-1-phosphates are converted to the corresponding GDP-fucose analogs by using 1H-tetrazole as a catalyst. The tolerability of GDP-fucose analogs 8 and 9 for human alpha-1,3-fucosyltranseferases (FucTs) II-VII is confirmed by using a standard microtiter plate assay. They are then used to elaborate the glycoconjugate substrate, human alpha1-acid glycoprotein (AGP), an acute-phase protein. As fucosylation of AGP is associated with inflammatory diseases, the degree of fucosylation of AGP could be a potential diagnostic or prognostic marker. AGP was fucosylated by using FucT V in the presence of GDP-fucose analogs 8 or 9. After gel filtration, the fucosylated AGP is labeled by using the corresponding naphthalimide 1a or 1b for 4 h at room temperature. Labeled protein is analyzed by SDS/PAGE and visualized by UV light (365 nm). […] Treated protein was separated by SDS/PAGE and visualized by UV light (Top) and Coomassie blue staining (CBB) (Middle). (Bottom) Modified GDP-fucose.
# Human alpha1-acid glycoprotein (0.33 mg/mL), pretreated with alpha-fucosidase, was incubated with human alpha-1,3-fucosyltransferase V (100 mU/mL) in MOPS buffer (50 mM, pH 7.2) containing 150 mM NaCl, 10 mM MnCl2, 4 mM ATP, 0.2 mM GDP-fucose analog (8-10). After incubation at 37° C. for 8 h, additional GDP-fucose derivative (final 0.4 mM) was added and the reaction mixture was incubated at 37° C. for 12 h. […]
# The fucosylated glycoconjugate was dissolved in HEPES buffer (50 mM, pH 7.6), and added to a solution containing CuSO4 (0.2 mM), 1.0 mM sodium ascorbate, the tris(triazolyl)amine ligand (20) (0.2 mM, stock in DMSO), and the appropriate naphthalimide ligation probe 1a or 1b (0.1 mM, stock in DMSO, final concentration of DMSO; 10%)). After 1 h at room temperature, the mixture was passed through NAP-5 column in water and lyophilized, and analyzed by SDS-PAGE.
# Hep 3B = assay: Fluorescence microscopy imaging of intracellular fucosylated glycoconjugates; assay type: cell-based, human
# Procedure: The human hepatoma cell line, Hep 3B, was incubated with acetylated azidofucose 12. After 3 days, the cells were fixed, washed with PBS, and then stained with 1a for visualization. […] The labeling reaction was performed in the presence of Cu(I) after the treatment with control fucose (A) or azidofucose 12 (B), or in the absence of Cu(I) after the treatment with control fucose (C) or azidofucose 12 (D). (Scale bar: 20 μm.)
# In another aspect of the disclosure, double-staining experiments were performed to find out whether the punctate pattern observed from azidofucose marks specific cellular compartments. […] Azidofucose treated cells were fixed and labeled with probe 1a and then further treated with WGA lectin conjugated with Alexa Fluor 594, and the cells were imaged with confocal fluorescence microscope, using the appropriate filter sets. […] (Scale bar: 20 μm.)
# The human hepatocellular carcinoma cell line, Hep3B (American Type Culture Collection, Manassas, Va.), was cultured in Opti-MEM (Invitrogen) supplemented with 0.1% FCS and treated with natural fucose or peracetylated azidofucose 12 (200 μM) for 3 days. The cells then were transferred to a coverslip glass slide and cultured overnight in the same medium. […] After labeling, cells were washed with PBS, and fluorescence images were obtained by using Axiovert 200M (Carl Zeiss, Inc., Thornwood, N.Y.). […]
# Jurkat cells = assay: Fluorescent labeling at the cell surface by flow cytometry; assay type: cell-based
# Description: In another aspect, the disclosure provides a method of labeling of azide-tagged glycoconjugates expressed on the cell surface by using the alkyne click-activated fluorogenic probe 1a. First, the effect of various Cu(I) sources on the copper-catalyzed cell-surface labeling reaction was investigated. Cu(I) is typically generated including in situ by the reduction of Cu(II) by conventional reducing agents or the direct addition of Cu(I) as a salt. To label azido tagged glycoconjugates (in this case, cellular glycans that had incorporated azidofucose), we investigated both methods by using in situ Cu(II) reduction with ascorbic acid and Tris(carboxyethyl)phosphine (TCEP) and direct addition of Cu(I), via CuBr, in CuAAC reactions. Jurkat cells were cultured in the presence of globally acetylated 6-azido-L-fucose 12 (acetylation increases cellular uptake of the sugar) so that they will incorporate the analog via the salvage pathway. After incubating for 3 days, the cells were labeled with 1a in the presence of the above listed Cu(I) sources, and the fluorescent intensities were measured by flow cytometry. […]
# Jurkat cells were cultured in RPMI medium 1640 (Invitrogen, Carlsbad, Calif.), supplemented with 10% FCS and peracetylated fucose 11 or azidofucose 12 (200 μM) at a density of 2×10^5 cells per ml for 3 days, in the presence or absence of tunicamycin (5 μg/ml). […] The fluorescence intensity was detected and acquired by BD LSR II (BD Biosciences, San Jose, Calif.) and FACSDiva software (BD Biosciences). […] For detection of the fluorescent adduct with probe 1a, a 351-nm UV laser was used for excitation, and emission was detected by a 440/40 band-pass filter.
# Jurkat cells were cultured in RPMI 1640 (Invitrogen, Carlsbad, Calif.) supplemented with 10% FCS and peracetylated fucose 11 or azidofucose 12 ([…]) at the density of 2×10^5 cells/mL for 3 days, in the presence or absence of tunicamycin ([…]). […] The fluorescence intensity was detected and acquired by BD LSR II (BD Biosciences, San Jose, Calif.) and FACSDiva software (BD Biosciences). […]
# [3] = Rapid screening of L-amino acids as cycloaddition ligand catalysts using fluorogenic probe 1a; details: L-amino acid 1.0 mM, CuSO4 1.0 mM, 1a + 2a
# Procedure: A fluorescence quenching technique was used to identify catalysts for the copper-catalyzed cycloaddition. […] In such a screen, the reaction between 1a and 2a is performed in microtiter plates in the presence of individual amino acids. […] (Upper) The microtiter plate was visualized under long wavelength UV lamp (365 nm). (Lower) The fluorescent intensities of each well are measured by a fluorescence plate reader.
# The effect of the ligand effect on the reaction rate was visualized by holding the 96-well microtiter plate under a long wavelength UV lamp (365 nm) and analyzed with a standard fluorescence multiplate reader.
# The overall volume in each vial was 250 microliters containing a solution of 1,8-naphthalimide 1a (0.5 mM), azidofucose 2a (1.0 mM), CuSO4 (1.0 mM), L-amino acid (1.0 mM) and sodium ascorbate (5.0 mM) in DMSO/water (56% DMSO). The reactions were allowed to stand at room temperature for 24 hours. The reaction mixture was diluted 60 times with 50 mM HEPES buffer (pH 7.2) and then transferred to 96-well microtiter plate, and fluorescence intensity (excitation, 365 nm; emission, […]) was determined with a Fusion plate reader (Perkin Elmer/Packard).
# [4] = Stoichiometric study of L-histidine in the cycloaddition of 1a and 2a; details: relative to copper ion; L-histidine 0-3.0 mM, CuSO4 1.0 mM
# Procedure: The overall volume in each vial was 250 microliters containing a solution of 1,8-naphthalimide 1a (0.5 mM), azidofucose 2a (1.0 mM), CUSO4 (1.0 mM), L-histidine (0-3.0 mM) and sodium ascorbate (5.0 mM) in DMSO/water (56% DMSO). The reactions were allowed to stand at room temperature for 24 hours. The catalytic activity was determined by the same method described above (FIG. 10).
# In this condition, 60% of 1a was converted to the product 10 after 1 h at room temperature and the reaction was completed in less than 6 h. To confirm the effects of L-His on the reaction, we measured the time-course of the reaction by fluorescence spectrometer. Conditions: 1,8-naphthalimide 1a (0.1 mM), azidofucose 2a (1.0 mM), CuSO4 (2.0 mM), L-histidine (0 or 4.0 mM) and sodium ascorbate (100 mM) in 50 mM HEPES buffer (containing 6% DMSO). After mixing all reagents, the fluorescence intensity was measured in 5 min intervals at 37° C. by a fluorescence spectrophotometer (FIG. 11). […] Fluorescence intensities were monitored at λ ex 357 nm and λem 462 nm.
molecule,measurement,setting,value
"Nc1ccc2c3c(cccc13)C(=O)NC2=O [4-amino-1,8-naphthalimide]",emission λmax,"[1]; long wavelength emission, basis of probe design",540-550 nm
"C#Cc1ccc2c3c(cccc13)C(=O)N(CC)C2=O [Compound 1a, 4-Ethynyl-N-ethyl-1,8-naphthalimide]",fluorescent band of labeled AGP on SDS/PAGE under UV light (365 nm),[2],clear fluorescent bands
"C[C@@H]1O[C@H](OP(=O)(O)OP(=O)(O)OC[C@H]2O[C@@H](n3cnc4c(=O)[nH]c(N)nc43)[C@H](O)[C@@H]2O)[C@@H](O)[C@H](O)[C@@H]1O [Compound 10, GDP-fucose]",fluorescent band of labeled AGP on SDS/PAGE under UV light (365 nm),[2],No band was present
CC(=O)OC1O[C@@H](CN=[N+]=[N-])[C@@H](OC(C)=O)[C@@H](OC(C)=O)[C@@H]1OC(C)=O (stereo partly shown) [Compound 12],labeling pattern after staining with 1a vs control fucose,"Hep 3B; Hep 3B, 3 days, fixed cells, Cu(I)",distinct punctate-labeling pattern
same,co-localization with Alexa Fluor 594-conjugated WGA lectin (Golgi marker),"Hep 3B; fixed cells labeled with probe 1a, confocal microscopy",overlapped perfectly
same,cell fluorescence after CuAAC labeling with 1a vs natural fucose,"Jurkat cells; Jurkat cells, 3 days, all three copper sources, flow cytometry",distinct increase in fluorescence
same,fluorescent signal after labeling with biotinylated alkyne 13 and avidin-fluorescein vs fucose,"Jurkat cells; Jurkat cells, flow cytometry",distinct increase in fluorescent signal
"N[C@@H](Cc1c[nH]cn1)C(=O)O [Histidine, histidine]",enhancement of reaction rate compared to ligand-free conditions,[3]; 24 h room temperature,about 6 times
same,amount of ligand giving maximum effect on the catalysis,[4],2.0 mol equivalent
C=C[C@H]1C[N@@]2CC[C@H]1C[C@H]2[C@H](O)c1ccnc2ccc(OC)cc12 [Quinine sulfate],quantum yield of fluorescent standard,[1]; standard value,0.54
N[C@@H](CS)C(=O)O [cysteine],effect on cycloaddition reaction,[3],obstructive to the reaction
N[C@@H](CCC(=O)O)C(=O)O [glutamic acid],effect on cycloaddition reaction,[3],obstructive to the reaction
NCCCC[C@H](N)C(=O)O [lysine],effect on cycloaddition reaction,[3],obstructive to the reaction
N[C@@H](Cc1c[nH]c2ccccc12)C(=O)O [tryptophan],enhancement of cycloaddition rates,[3]; 24 h room temperature,approximately 2 fold
N[C@@H](Cc1ccc(O)cc1)C(=O)O [tyrosine],enhancement of cycloaddition rates,[3]; 24 h room temperature,approximately 2 fold
tunicamycin,effect on cell surface fluorescence,"Jurkat cells; Jurkat cells co-treated with azidofucose, labeled with 1a",suppressed cell surface fluorescence
